Data: the NIST ThermoML archive (doi:10.1021/je7003758)

Experiment: xn = mol fraction of the nth substance listed
Settings: 298.15 K, Liquid

CCCCCl [1-chlorobutane] + CN1CCCC1=O
mass density [kg/m3]
Settings	x2 = 0.1004	x2 = 0.2002	x2 = 0.2974	x2 = 0.4	x2 = 0.5052	x2 = 0.6019	x2 = 0.7039	x2 = 0.8011	x2 = 0.9002
100 kPa	896.6	912	926.8	942.2	957.5	971.7	986.2	1000.1	1014.3
500 kPa	896.9	–	927.1	942.5	957.8	972	986.5	1000.4	1014.5
600 kPa	–	912.3	–	–	–	–	–	–	–
1000 kPa	897.4	912.7	927.5	942.8	958.2	972.2	986.8	1000.6	1014.8
1500 kPa	897.9	913.2	927.9	943.2	958.6	972.6	987.1	1000.9	1015.1
2000 kPa	898.4	913.6	928.4	943.6	958.9	973	987.4	1001.2	1015.3
2400 kPa	–	–	928.7	–	–	973.3	–	–	–
2500 kPa	898.9	914.1	–	944	959.3	–	987.7	1001.6	1015.6
3000 kPa	899.3	914.6	929.2	944.4	959.6	973.6	988	1001.8	1015.9
3500 kPa	899.8	915	929.6	944.8	960	973.9	988.4	1002.2	1016.2
3900 kPa	–	–	–	–	–	974.2	–	–	–
4000 kPa	900.3	915.4	930	945.1	960.3	–	988.7	1002.4	1016.5
4400 kPa	900.7	–	–	–	–	–	–	–	1016.7
4500 kPa	–	915.9	930.4	945.6	960.7	974.6	989	1002.7	–
4900 kPa	901.2	–	–	–	–	–	–	–	–
5000 kPa	–	916.3	930.8	945.9	961.1	–	989.3	1003	1017
5100 kPa	–	–	–	–	–	975	–	–	–
5400 kPa	901.7	–	–	–	–	975.2	–	–	–
5500 kPa	–	916.8	931.2	946.3	961.4	–	989.6	1003.3	1017.3
5900 kPa	–	917.1	–	–	–	–	–	–	–
6000 kPa	902.1	–	931.7	946.7	961.8	975.6	990	1003.6	1017.6
6500 kPa	902.6	917.6	932.1	947.1	962.2	976	990.2	1003.9	1017.8
6900 kPa	903	–	932.5	–	–	–	–	–	–
7000 kPa	–	918.1	–	947.5	962.5	976.3	990.6	1004.2	1018.2
7500 kPa	903.5	918.5	932.8	–	962.9	976.6	990.9	1004.5	1018.4
7600 kPa	–	–	–	948	–	–	–	–	–
7900 kPa	903.9	–	–	–	–	–	991.1	–	–
8000 kPa	–	918.9	933.3	948.3	963.2	976.9	–	1004.8	1018.7
8400 kPa	–	919.3	–	–	–	–	–	–	–
8500 kPa	904.4	–	933.6	948.6	963.6	977.2	991.5	1005.1	1019
8900 kPa	–	919.7	–	–	–	977.5	991.7	–	–
9000 kPa	904.9	–	933.9	949	963.9	–	–	1005.4	1019.2
9400 kPa	–	–	934.3	–	–	–	992	–	–
9500 kPa	905.3	920.2	–	949.3	964.2	977.9	–	1005.6	1019.5
9900 kPa	–	–	934.8	–	–	–	–	–	–
10000 kPa	905.8	920.7	–	949.8	–	–	–	–	–
